# Where “and” joins values, the source holds several entries; their conditions need not be identical. Equal entries are not always repeated. Toxic doses and inconclusive results are not listed.
# Tested on: L1210 leukemia ip in BDF1 mice, survival T/C
# Experiment: NCI In Vivo Anticancer Drug Screen. Data for tumor model L1210 Leukemia (intraperitoneal) in B6D2F1 (BDF1) mice
# Settings: endpoint: mean survival time, higher = longer survival
# Summary of the method: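 Transplanted-tumor mice were given test agent; controls received vehicle only. Survival readings from the two groups were divided (treated over control).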
# [1] = dose: 100.0 mg/kg/injection, schedule: Q01DX001 (ip), vehicle: carboxymethylcellulose (CMC)
# [2] = dose: 200.0 mg/kg/injection, schedule: Q01DX001 (ip), vehicle: carboxymethylcellulose (CMC)
# [3] = dose: 400.0 mg/kg/injection, schedule: Q01DX001 (ip), vehicle: carboxymethylcellulose (CMC)
# [4] = dose: 100.0 mg/kg/injection, schedule: Q04DX003 (ip), vehicle: Klucel (hydroxypropylcellulose) (HPC)
# [5] = dose: 200.0 mg/kg/injection, schedule: Q04DX003 (ip), vehicle: Klucel (hydroxypropylcellulose) (HPC)
# [6] = dose: 400.0 mg/kg/injection, schedule: Q04DX003 (ip), vehicle: Klucel (hydroxypropylcellulose) (HPC)
# [7] = dose: 100.0 mg/kg/injection, schedule: Q01DX009 (ip), vehicle: Klucel (hydroxypropylcellulose) (HPC)
# [8] = dose: 200.0 mg/kg/injection, schedule: Q01DX009 (ip), vehicle: Klucel (hydroxypropylcellulose) (HPC)
# [9] = dose: 400.0 mg/kg/injection, schedule: Q01DX009 (ip), vehicle: Klucel (hydroxypropylcellulose) (HPC)
# [10] = dose: 100.0 mg/kg/injection, schedule: Q01DX001 (ip), vehicle: saline
# [11] = dose: 100.0 mg/kg/injection, schedule: Q04DX002 (ip), vehicle: saline
# [12] = dose: 200.0 mg/kg/injection, schedule: Q04DX002 (ip), vehicle: saline
# [13] = dose: 150.0 mg/kg/injection, schedule: Q01DX001 (ip), vehicle: saline
smiles,measurement,setting,value
Nc1cc(N)cc([N+](=O)[O-])c1,T/C,"dose: 3.12 mg/kg/injection, schedule: Q01DX009 (ip), vehicle: saline",103 % of control
same,T/C,"dose: 6.25 mg/kg/injection, schedule: Q01DX009 (ip), vehicle: saline",103 % of control
same,T/C,"dose: 6.25 mg/kg/injection, schedule: Q04DX003 (ip), vehicle: saline",101 % of control
same,T/C,"dose: 12.5 mg/kg/injection, schedule: Q01DX009 (ip), vehicle: saline",95 % of control
same,T/C,"dose: 12.5 mg/kg/injection, schedule: Q04DX003 (ip), vehicle: saline",101 % of control
same,T/C,"dose: 25.0 mg/kg/injection, schedule: Q04DX003 (ip), vehicle: saline",101 % of control
same,T/C,"dose: 50.0 mg/kg/injection, schedule: Q01DX001 (ip), vehicle: carboxymethylcellulose (CMC)",113 % of control
same,T/C,[1],109 % of control
same,T/C,[2],107 % of control
same,T/C,[3],109 % of control
O=c1cc(-c2ccccc2)[nH]c2ccc(S(=O)(=O)O)cc12,T/C,[4],93 % of control
same,T/C,[5],106 % of control
same,T/C,[6],96 % of control
Cc1ccccc1NC(=O)Oc1ccc(C2CCCCC2)cc1,T/C,"dose: 100.0 mg/kg/injection, schedule: Q04DX002 (ip), vehicle: Klucel (hydroxypropylcellulose) (HPC)",103 % of control
same,T/C,"dose: 200.0 mg/kg/injection, schedule: Q04DX002 (ip), vehicle: Klucel (hydroxypropylcellulose) (HPC)",91 % of control
same,T/C,"dose: 400.0 mg/kg/injection, schedule: Q04DX002 (ip), vehicle: Klucel (hydroxypropylcellulose) (HPC)",100 % of control
COC(=O)C(CSCSC)NC(=O)Nc1ccc(F)cc1 (centres undefined),T/C,"dose: 50.0 mg/kg/injection, schedule: Q01DX009 (ip), vehicle: saline with Tween-80",98 % of control
same,T/C,"dose: 100.0 mg/kg/injection, schedule: Q01DX009 (ip), vehicle: saline with Tween-80",93 % of control
same,T/C,"dose: 100.0 mg/kg/injection, schedule: Q04DX003 (ip), vehicle: saline with Tween-80",95 % of control
same,T/C,"dose: 200.0 mg/kg/injection, schedule: Q01DX009 (ip), vehicle: saline with Tween-80",94 % of control
same,T/C,"dose: 200.0 mg/kg/injection, schedule: Q04DX003 (ip), vehicle: saline with Tween-80",93 % of control
same,T/C,"dose: 400.0 mg/kg/injection, schedule: Q04DX003 (ip), vehicle: saline with Tween-80",95 % of control
COc1cccc(C=NC2CC(C)CCC2C)c1OC (centres undefined),T/C,"dose: 50.0 mg/kg/injection, schedule: Q04DX002 (ip), vehicle: saline with Tween-80",90 % of control
same,T/C,"dose: 100.0 mg/kg/injection, schedule: Q04DX002 (ip), vehicle: saline with Tween-80",93 % of control
same,T/C,"dose: 200.0 mg/kg/injection, schedule: Q04DX002 (ip), vehicle: saline with Tween-80",87 % of control
same,T/C,"dose: 400.0 mg/kg/injection, schedule: Q04DX002 (ip), vehicle: saline with Tween-80",90 % of control
O=N[O-].O=N[O-].[Co].[NH-]CC[N-]CCO.[NH-]CC[N-]CCO,T/C,"dose: 25.0 mg/kg/injection, schedule: Q01DX009 (ip), vehicle: water",109 % of control and 122 % of control
same,T/C,"dose: 25.0 mg/kg/injection, schedule: Q04DX003 (ip), vehicle: water",99 % of control
same,T/C,"dose: 50.0 mg/kg/injection, schedule: Q01DX009 (ip), vehicle: water",103 % of control and 109 % of control
same,T/C,"dose: 50.0 mg/kg/injection, schedule: Q04DX003 (ip), vehicle: water",100 % of control
same,T/C,"dose: 100.0 mg/kg/injection, schedule: Q01DX009 (ip), vehicle: water",120 % of control and 89 % of control
same,T/C,"dose: 100.0 mg/kg/injection, schedule: Q04DX003 (ip), vehicle: water",97 % of control and 100 % of control
N#CSC/C=C/Cl,T/C,"dose: 50.0 mg/kg/injection, schedule: Q01DX009 (ip), vehicle: Klucel (hydroxypropylcellulose) (HPC)",94 % of control
same,T/C,[7],107 % of control
same,T/C,[4],92 % of control
same,T/C,[5],90 % of control
O=C(Nc1ccccc1C(F)(F)F)N(Cc1ccccc1)c1ccccc1,T/C,[7],93 % of control
same,T/C,[8],92 % of control
same,T/C,[9],98 % of control
CC(C#N)(/C=C/c1ccccc1)Nc1ccccc1N (centres undefined),T/C,[7],95 % of control
same,T/C,[4],94 % of control
same,T/C,[8],95 % of control
same,T/C,[5],98 % of control
same,T/C,[9],96 % of control
same,T/C,[6],93 % of control
CC12CC3C(C(=O)O)C(C(=O)O)C1C(C(=O)O2)C3C(=O)O (centres undefined),T/C,"dose: 50.0 mg/kg/injection, schedule: Q01DX009 (ip), vehicle: saline",97 % of control
same,T/C,[10],91 % of control
same,T/C,"dose: 100.0 mg/kg/injection, schedule: Q01DX009 (ip), vehicle: saline",90 % of control
same,T/C,"dose: 200.0 mg/kg/injection, schedule: Q01DX001 (ip), vehicle: saline",89 % of control
same,T/C,"dose: 200.0 mg/kg/injection, schedule: Q01DX009 (ip), vehicle: saline",100 % of control
same,T/C,"dose: 400.0 mg/kg/injection, schedule: Q01DX001 (ip), vehicle: saline",87 % of control
CN/C=C1\CCOC1=O,T/C,[11],124 % of control
same,T/C,[12],101 % of control
same,T/C,"dose: 400.0 mg/kg/injection, schedule: Q04DX002 (ip), vehicle: saline",90 % of control
O=NN(CCCl)C(=O)NC1CCCC1,T/C,"dose: 3.0 mg/kg/injection, schedule: Q01DX001 (ip), vehicle: saline",108 % of control
same,T/C,"dose: 6.0 mg/kg/injection, schedule: Q01DX001 (ip), vehicle: saline",108 % of control
same,T/C,"dose: 12.0 mg/kg/injection, schedule: Q01DX001 (ip), vehicle: saline",112 % of control
same,T/C,"dose: 18.0 mg/kg/injection, schedule: Q01DX001 (ip), vehicle: saline",118 % of control
same,T/C,"dose: 25.0 mg/kg/injection, schedule: Q01DX001 (ip), vehicle: saline",162 % of control
same,T/C,"dose: 30.0 mg/kg/injection, schedule: Q01DX001 (ip), vehicle: saline",222 % of control
same,T/C,"dose: 44.0 mg/kg/injection, schedule: Q01DX001 (ip), vehicle: saline",302 % of control
same,T/C,"dose: 50.0 mg/kg/injection, schedule: Q01DX001 (ip), vehicle: saline",328 % of control
same,T/C,"dose: 67.0 mg/kg/injection, schedule: Q01DX001 (ip), vehicle: saline",278 % of control
same,T/C,"dose: 93.0 mg/kg/injection, schedule: Q01DX001 (ip), vehicle: saline",243 % of control
same,T/C,[10],224 % of control and 333 % of control
same,T/C,[13],295 % of control
same,T/C,"dose: 187.0 mg/kg/injection, schedule: Q01DX001 (ip), vehicle: saline",197 % of control
same,T/C,"dose: 375.0 mg/kg/injection, schedule: Q01DX001 (ip), vehicle: saline",283 % of control
same,T/C,"dose: 500.0 mg/kg/injection, schedule: Q01DX001 (ip), vehicle: saline",327 % of control
CC(C)C1CCC(C)C(OB(OC2CC(C(C)C)CCC2C)OC2CC(C(C)C)CCC2C)C1 (centres undefined),T/C,[4],88 % of control
same,T/C,[5],99 % of control
same,T/C,[6],88 % of control
CC(C)N(CC#N)C(C)C,T/C,"dose: 0.25 mg/kg/injection, schedule: Q01DX009 (ip), vehicle: saline with Tween-80",93 % of control
same,T/C,"dose: 0.5 mg/kg/injection, schedule: Q01DX009 (ip), vehicle: saline with Tween-80",95 % of control
O=C(NC(Cc1ccccc1)C(=O)N1CCCCC1)c1ccccc1 (centres undefined),T/C,[1],101 % of control
same,T/C,[2],92 % of control
same,T/C,[3],90 % of control
Nc1c(F)c(F)c(C(=O)O)c(F)c1F,T/C,[11],94 % of control and 101 % of control
same,T/C,[12],97 % of control and 107 % of control
same,T/C,"dose: 800.0 mg/kg/injection, schedule: Q04DX002 (ip), vehicle: saline",100 % of control
COC(=O)CCC(=O)Nc1ccc(C(=O)CBr)cc1,T/C,"dose: 6.25 mg/kg/injection, schedule: Q01DX009 (ip), vehicle: Klucel (hydroxypropylcellulose) (HPC)",98 % of control
same,T/C,"dose: 12.5 mg/kg/injection, schedule: Q01DX009 (ip), vehicle: Klucel (hydroxypropylcellulose) (HPC)",96 % of control
same,T/C,"dose: 12.5 mg/kg/injection, schedule: Q04DX003 (ip), vehicle: Klucel (hydroxypropylcellulose) (HPC)",97 % of control
same,T/C,"dose: 25.0 mg/kg/injection, schedule: Q01DX009 (ip), vehicle: Klucel (hydroxypropylcellulose) (HPC)",102 % of control
same,T/C,"dose: 25.0 mg/kg/injection, schedule: Q04DX003 (ip), vehicle: Klucel (hydroxypropylcellulose) (HPC)",96 % of control
same,T/C,"dose: 35.0 mg/kg/injection, schedule: Q01DX009 (ip), vehicle: Klucel (hydroxypropylcellulose) (HPC)",95 % of control
same,T/C,"dose: 55.0 mg/kg/injection, schedule: Q01DX009 (ip), vehicle: Klucel (hydroxypropylcellulose) (HPC)",93 % of control
Cc1cc([N+](=O)[O-])c(C)cc1O,T/C,"dose: 75.0 mg/kg/injection, schedule: Q01DX001 (ip), vehicle: saline",91 % of control
same,T/C,[13],94 % of control

# — PubChem BioAssay AID248 (DTP/NCI, 2004)
